Test results: the supplement of paper PMC6206229
In brackets after ≈: the same amount, converted by molar mass.

Legend:
[1] = test system: Staphylococcus aureus ATCC 700699 (MRSA); experiment: minimum inhibitory concentration; extreme values may be limits of the assay
Method in brief: (§1)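 Following CLSI guidance, methicillin-susceptible and methicillin-resistant Staphylococcus aureus were exposed to compounds from 0 to 100 µM in 96-well plates for 24 h at 37°C, then to 30 µl of 0.015% resazurin for 2–4 h. The minimum inhibitory concentration was read as the lowest concentration with no change from blue to pink. Testing was done at least twice in triplicate with positive controls on each plate.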

[2] = test system: Staphylococcus aureus ATCC 29213 (MSSA); experiment: as above
Method in brief: as §1

SMILES | minimum inhibitory concentration [1] | minimum inhibitory concentration [2]
Cc1nn(Cc2ccccc2)c(Cl)c1C(=O)NC1CCCCCC1 | > 50 µM | > 50 µM
O=C(c1[nH]nc2c1CCCC2)N1CCN(Cc2ccc3c(c2)OCO3)CC1 | > 50 µM | > 50 µM
COc1cccn2c(C(=O)N3CCCCC3)c(C(F)(F)F)nc12 | > 50 µM | > 50 µM
Cc1nc(-c2ccccn2)nc(NCCc2ccc(S(C)(=O)=O)cc2)c1Cl | > 50 µM | > 50 µM
Clc1ccc(-n2cc(COc3ccnc4ccccc34)nn2)cc1 | > 50 µM | > 50 µM
CNC(=O)C1Cc2c([nH]c3cc(Cl)ccc23)C2(CCN(CCc3ccccc3)CC2)N1 (configuration not stated) | > 50 µM | > 50 µM
Cc1nc(-c2ccccn2)nc(N(C)CCc2ccccc2)c1Cl | 50 µM (≈ 16.9 µg/mL) | 50 µM (≈ 16.9 µg/mL)
Cc1nn(C)cc1C(C)Nc1nncc(-c2ccc(C(F)(F)F)cc2)n1 (configuration not stated) | > 50 µM | > 50 µM
COc1ccc(Nc2ccccc2NC(=O)c2ccc(O)nc2)cc1 | > 50 µM | > 50 µM
COc1cc(NC(C)CCCN)c2ncccc2c1 (configuration not stated) | > 50 µM | > 50 µM
CCc1cc(=O)n(C)c(SC(C)C(=O)Nc2ccc(F)cc2)n1 (configuration not stated) | > 50 µM | > 50 µM
CC1(C)Cc2c(c(N3CCOCC3)nc3snc(Br)c23)CO1 | > 50 µM | > 50 µM
CCOc1ccc2cc(-c3nn(C(C)(C)C)c(N)c3C(N)=O)cnc2c1 | > 50 µM | > 50 µM
CC(C)NCC(=O)Nc1cccc(C(=O)Nc2cccc(C(F)(F)F)c2)c1 | > 50 µM | > 50 µM
COc1cccc(CC(=O)N2CCC(n3c(C)nc4ccc(F)cc43)CC2)c1 | > 50 µM | > 50 µM
O=C(c1ccco1)N(CCCn1ccnc1)c1nc2c(Cl)cccc2s1 | > 50 µM | > 50 µM
CC1CS(=O)(=O)CCN1/N=C/c1ccc([N+](=O)[O-])o1 (configuration not stated) | > 50 µM | > 50 µM
O=S(=O)(c1ccc(Cl)cc1)N1CCN(C(=S)NCc2ccco2)CC1 | > 50 µM | > 50 µM
Cc1cc(NCC(C)C)c2[nH]nc(-c3ccccc3)c2n1 | > 50 µM | > 50 µM
CN1CCN(c2cc(-c3ccc(F)cc3)nc(-c3ccncc3)n2)CC1 | > 50 µM | > 50 µM
CCCc1ccc(S(=O)(=O)Nc2ccc(CN3CCN(CC4CC4)CC3)cc2)cc1 | > 50 µM | > 50 µM
COc1cc(CN2CCC3(C=Cc4ccccc43)CC2)cc2c1OCO2 | > 50 µM | > 50 µM
O=C(CCC1CCCCC1)Nc1cccc(-c2nnc(-c3ccco3)o2)c1 | > 50 µM | > 50 µM
CCCS(=O)(=O)N1CCC(CO)(Cc2ccccc2C(F)(F)F)CC1 | > 50 µM | > 50 µM

SMILES | minimum inhibitory concentration [1] | minimum inhibitory concentration [2]
O=C(C1CCCCC1)N1CC(=O)N2CCc3ccccc3C2C1 (configuration not stated) | > 50 µM | > 50 µM
CC(C)(C)C(O)C(Oc1ccc(-c2ccccc2)cc1)n1cncn1 (configuration not stated) | > 50 µM | > 50 µM
COc1ccc(-c2cncc3ccc(C(=O)NCCCn4ccnc4)nc23)cc1 | > 50 µM | > 50 µM
CC(=O)NC[C@@H]1CN(c2ccc(N3CCOCC3)c(F)c2)C(=O)O1 | 3.12 µM (≈ 1.05 µg/mL) | 6.25 µM (≈ 2.11 µg/mL)
COc1ccc(OC)c(NCc2ccc3nc(N)nc(N)c3c2Cl)c1 | 50 µM (≈ 18 µg/mL) | 50 µM (≈ 18 µg/mL)
CC1=Nc2ccc(Cl)cc2C(c2ccccc2)N1CCNC(=O)CN(C)C (configuration not stated) | > 50 µM | > 50 µM
CCc1nc2ccc(Cl)cn2c1C(=O)NCc1ccc(N2CCC(c3ccc(OC(F)(F)F)cc3)CC2)cc1 | > 50 µM | > 50 µM
Nc1nc(N)c2c3c(sc2n1)CN(Cc1ccccc1)CC3 | > 50 µM | > 50 µM
CC(C)(C(=O)Nc1ccc(F)cc1)n1cc(-c2ccccc2F)cn1 | > 50 µM | > 50 µM
O=C(Nc1cccnc1)c1c(O)c2cccc3c2n(c1=O)CC3 | 50 µM (≈ 15.4 µg/mL) | 25 µM (≈ 7.68 µg/mL)
c1ccc(Oc2ccc(-c3cc(N4CCOCC4)[nH]n3)cc2)cc1 | > 50 µM | > 50 µM
Cc1cc2nc(NC(=O)C(C)(C)C)nc(Cl)c2n1Cc1ccc(Cl)cc1 | > 50 µM | > 50 µM
CCc1ccc([C@@H]2C[C@H](C(F)(F)F)n3ncc(C(=O)NCc4ccc(OC)cc4)c3N2)cc1 | > 50 µM | > 50 µM
Cc1nc2ccccn2c1C(=O)NCc1ccc(Cl)cc1 | > 50 µM | > 50 µM
OCc1ccc(-c2cncc(Nc3cccc(Cl)c3)c2)cc1 | > 50 µM | > 50 µM
c1cc(C2=NCCN2)cc(-c2cc(-c3ccc(C4=NCCN4)cc3)no2)c1 | > 50 µM | > 50 µM
O=C(NC1CC1)c1ccc(N2CCC(Cc3ccccc3)CC2)nc1 | > 50 µM | > 50 µM
CC[C@@H]([C@H](C)O)n1ncn(-c2ccc(N3CCN(c4ccc(OC[C@@H]5CO[C@@](Cn6cncn6)(c6ccc(F)cc6F)C5)cc4)CC3)cc2)c1=O | > 50 µM | > 50 µM
O=C1COCc2ccc(Br)cc2N1Cc1ccc(C(F)(F)F)cc1 | > 50 µM | > 50 µM
CN1CCC(c2cc(-c3ccncc3)c(-c3ccc(F)cc3)[nH]2)CC1 | > 50 µM | > 50 µM
Cc1cccc(-c2nc(Nc3ccncn3)c3sccc3n2)n1 | > 50 µM | > 50 µM
Oc1c(I)cc(I)c2cccnc12 | 50 µM (≈ 19.8 µg/mL) | > 50 µM
C[C@]1(COc2ccc(N3CCC(Oc4ccc(OC(F)(F)F)cc4)CC3)cc2)Cn2cc([N+](=O)[O-])nc2O1 | > 50 µM | > 50 µM
N#Cc1nc(-c2ccccc2F)oc1NCCc1ccccc1 | > 50 µM | > 50 µM

SMILES | minimum inhibitory concentration [1] | minimum inhibitory concentration [2]
CN1CCN(S(=O)(=O)c2ccc(-c3ccc4c(Nc5ncc(Cl)cn5)ccnc4c3)cc2)CC1 | > 50 µM | > 50 µM
Cc1ccc(Oc2ccc(NC(=O)CNc3ccccc3N3CCCC3=O)cc2)cc1 | > 50 µM | > 50 µM
COC(=O)c1c(NC(=O)c2cc3ccccc3oc2=O)sc2c1CCN(Cc1ccccc1)C2 | > 50 µM | > 50 µM
COc1ccc(CN2CCOc3ccc(C(C)(O)CN(C)C)cc3C2)cc1C (configuration not stated) | > 50 µM | > 50 µM
c1ccc(Oc2ccc(-c3cc(CN4CCOCC4)[nH]n3)cc2)cc1 | > 50 µM | > 50 µM
CCC(Sc1nc2ccccc2o1)C(=O)Nc1nnc(C)s1 (configuration not stated) | 50 µM (≈ 16.7 µg/mL) | 50 µM (≈ 16.7 µg/mL)
CC(c1cc(Cl)cc(Cl)c1)N(C)c1ncc2c(N)nc(N)nc2n1 (configuration not stated) | 50 µM (≈ 18.2 µg/mL) | 50 µM (≈ 18.2 µg/mL)
CC(C)=CCC/C(C)=C/CNCCNC1C2CC3CC(C2)CC1C3 (configuration not stated) | 50 µM (≈ 16.5 µg/mL) | 50 µM (≈ 16.5 µg/mL)
NCC(c1cccs1)S(=O)(=O)c1ccccc1 (configuration not stated) | > 50 µM | > 50 µM
COc1cccc(-c2cc3c(Nc4cccnc4)nccc3[nH]2)c1 | > 50 µM | > 50 µM
CC1CCCN(C(=O)C(C)Nc2cc(Cl)ccc2N2CCOCC2)C1 (configuration not stated) | > 50 µM | > 50 µM
FC(F)(F)c1cc(NCCc2ccccc2)nc(-c2ccccn2)n1 | > 50 µM | > 50 µM
CO[C@@H]1CN(c2ccc(C#CC3(O)CN4CCC3CC4)c(Cc3ccccc3)n2)C[C@H]1O (some centres not stated) | > 50 µM | > 50 µM
COC(=O)C1=C(C)NC(C)=C(C(=O)OC(C)C)C1c1cccc2nonc12 (configuration not stated) | > 50 µM | > 50 µM
COc1ccc(OC(C)C(=O)Nc2ccc(Cl)cc2C)cc1 (configuration not stated) | > 50 µM | > 50 µM
CC(Oc1cccc(Cl)c1)C(=O)Nc1ccc2oc(-c3ccncc3)nc2c1 (configuration not stated) | > 50 µM | > 50 µM
Cc1nnc(NC(=O)c2cn(-c3ccccc3)nc2-c2ccccc2C)o1 | > 50 µM | > 50 µM
CC(C)(C)n1nc(Cc2ccc(F)c(Cl)c2)c2c(N)ncnc21 | > 50 µM | > 50 µM
COc1cc(Br)cc2cc(C(=O)Nc3cccc(C(F)(F)F)c3)c(=O)oc12 | > 50 µM | > 50 µM
COc1ccc(-c2nn(C(C)C)c3ncnc(N)c23)cc1OC | > 50 µM | > 50 µM
CC(C)(C)n1nc(Cc2cccc3ccccc23)c2c(N)ncnc21 | > 50 µM | > 50 µM
NCC(=O)N1CCn2c(nc(-c3ccccc3)c2Nc2ccc3c(c2)OCO3)C1 | > 50 µM | > 50 µM
CCOC(=O)c1noc(N)c1-c1ccccc1 | 50 µM (≈ 11.6 µg/mL) | 50 µM (≈ 11.6 µg/mL)
